In brackets after ≈: the same amount, converted by molar mass. Like-named read-outs stand apart in the source and are kept apart here.
How the values were obtained:
[1] = system: S. aureus ATCC 25923 (methicillin-susceptible); experiment: In vitro antibacterial activity, MIC (UCL), MSSA; format: cell-based, Staphylococcus aureus; settings: Staphylococcus aureus; read-out: MSSA MIC
Method in brief: (§1)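 Broth microdilution MIC in isosensitest broth; inoculum from overnight tryptone soya agar culture suspended in PBS to A600 0.1 (~1 × 10^8 CFU/mL), then diluted 1:100. Compounds tested as 2-fold series from 32 to 0.03 μg/mL, DMSO at most 2%; vancomycin as quality control.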

Aqueous solubility = format: physicochemical; settings: thermodynamic from solid; read-out: Aqueous Solubility
[2] = system: Enterococcus faecalis ATCC 51299 (vanA-positive; vancomycin-resistant); experiment: In vitro antibacterial activity, MIC (UCL), VRE; format: cell-based; settings: read-out: VRE MIC
Method in brief: as §1

[3] = HEK293 toxicity, 96-well dose-response (UCL; MTT or resazurin, with or without recovery); format: cell-based, human; settings: human, HEK293 cells; 32 μg/mL; read-out: spread of Dmax values comparing recovery and non-recovery conditions
Protocol: The importance of balancing potency vs MRSA and cytotoxicity led us to examine a subset of compounds more thoroughly for toxicity against human embryonic kidney cell line HEK293. […] Dmax is a parameter that quantifies toxicity at the highest tested concentration (32 μg/mL for all compounds), calculated as reciprocal percentage of viable cells (100 – viability%), where cells either were allowed to recover or viability was measured immediately after treatment. […] Our efforts focused on trying to replicate the original toxicity experiments (by CO-ADD) with tamoxifen using a protocol modified for use with 96-well plates. Given the variability of protocols and results in the literature,[28] it was important to compare with a standard protocol we have reliably used in our own laboratories.[29]−[33] […] Truly “non-toxic” compounds might be expected to show Dmax < 50% for all experiment variations, e.g., 861. […] A large spread of Dmax values comparing recovery and non-recovery conditions larger than 20% is perhaps indicative of a mechanism of toxicity that persists beyond exposure, i.e., cytotoxic compounds that continue to induce toxicity as cells recover and restart dividing, for example, compounds 865, 870, 871, 980, and 981. […] This variability could be driven by interference of the compounds with the fluorescence readout or resorufin build-up as previously described.[27]
HEK293 cells (ATCC, UK) at passage 32 were a kind gift from Dr. Ben Allsop from the Translational Research Office at University College London. Cells were tested for mycoplasma using a MycoAlert Detection Kit (Lonza, Switzerland) as per manufacturer instructions, frozen stocks were stored in liquid nitrogen, and cells were re-tested whenever a new aliquot was thawed.
Cells were maintained in DMEM (Sigma-Aldrich, UK) supplemented with 10% heat-inactivated FBS (Sigma-Aldrich, UK), 1% GlutaMax (ThermoFisher, UK), and 1% sodium pyruvate (Lonza, UK) without antibiotics in an incubator at 37 °C and 5% CO2. Media was changed every 2 days, and cells were passaged every 3–4 days at a subcultivation ratio of 1:10, by detaching the cells with phenol-free TrypLE Express (ThermoFisher, UK), after washing with HBSS Ca^2+/Mg^2+ (ThermoFisher, UK). Up to 55 passages were used throughout the experiments.
(a) Cell seeding: At subculture, a dilute solution of cells was counted using Trypan Blue (Sigma-Aldrich, UK) and a hemocytometer. Cells were further diluted to 7000 or 50 000 cells/mL for experiments.
For recovery experiments, 700 cells (100 μL) were seeded in 96-well plates and incubated for 48 h while cells reached exponential phase.
For non-recovery experiments, 5000 cells (100 μL) were seeded in 96-well plates and incubated for 48 h while cells reached confluence. This is the same number of cells as per the CO-ADD protocol where 384-well plates were used, but we extended the growth time to 48 h to produce a similar confluency.
Stock solutions were diluted 100 times (to 1% DMSO) to 32 μg/mL in full medium (vortexed briefly) and then serially diluted using a digital pipet (Explorer, Eppendorf, Germany) at a dilution factor of 2 to a final concentration of […].
(c) Dosing experiments: At the specified time after seeding, media was removed from cells, cells were washed with HBSS Ca^2+/Mg^2+ (100 μL), and 100 μL of diluted compounds were added as per Supporting Information - Biology, Figure S4, and incubated for 24 h.
After treatment, solutions were removed, and cells were washed with HBSS Ca^2+/Mg^2+. For non-recovery experiments, viability was determined immediately as described below.
For recovery experiments, fresh media was added to plates (100 μL) and cells were returned to the incubator for another 72 h, after which viability was recorded as described below.
i. MTT assay: 3-[4,5-Dimethylthiazol-2-yl]-2,5-diphenyltetrazolium bromide (MTT) (Sigma-Aldrich, UK) was dissolved in sterile PBS at 5 mg/mL with sonication (20 min), protected from light. […]

[4] = Human plasma protein binding (PPB); format: in vitro ADME; settings: human, plasma; read-out: Human PPB (converted)
[5] = system: Staphylococcus aureus NCTC 13373 (mecA-positive; methicillin-resistant); experiment: In vitro antibacterial activity, MIC (UCL School of Pharmacy assay), MRSA; format: cell-based; settings: Staphylococcus aureus, read-out: MRSA MIC
Method in brief: as §1

[6] = system: Staphylococcus aureus ATCC 43300 MRSA; experiment: CO-ADD antibacterial assay (growth inhibition, MIC), MRSA; format: cell-based; settings: read-out: MRSA MIC (CO-ADD)
Protocol: Hit Confirmation of active compounds by whole cell growth inhibition assays was conducted as an 8-point dose response to determine the Minimum Inhibitory Concentration (MIC), in duplicate (n=2). The inhibition of growth is measured against those microorganisms that […]
Included in the Hit Confirmation were 5 bacteria: Escherichia coli, Klebsiella pneumoniae, Acinetobacter baumannii, Pseudomonas aeruginosa and Staphylococcus aureus, and 2 fungi Candida albicans and Cryptococcus neoformans. […]
Assay Parameters Bacteria Fungi HEK293 Haemolysis […]
Duplicate (n=2) Duplicate (n=2) Duplicate (n=2) Duplicate (n=2)
QC Control MIC: Control MIC: Control CC50: Control HC10:
Non-Binding Non-Binding TC, 384-well Polypropylene
Plates Surface (NBS), Surface (NBS), black wall/clear 384-well and 384-well plate 384-well plate bottom polystyrene 384-
Cation-adjusted Yeast Nitrogen DMEM
Media Mueller Hinton Base supplemented 0.9% NaCl
Hit Confirmation outcomes are detailed in individual Project reports, personalised for each Project Submission for each CO-ADD user.
Please see your data sheet with file extension P0XXX_HC_data.xlsx, for example CO-ADD Project P0100, P0100_HC_data.xlsx
Study: HC_data ID: HC-Procedures & Materials
Date: Last updated June 2018 Confidential Page 3 of 11
(1 picture or pasted object on this page, not shown here)
Samples were provided by the collaborator and stored frozen at -20 °C. Samples were prepared in DMSO and water to a final testing concentration of 32 µg/mL or 20 µM (unless otherwise indicated in the data sheet) and serially diluted 1:2 fold for 8 times. Each sample concentration was prepared in 384-well plates, non-binding surface plate (NBS; Corning 3640) for each bacterial/fungal strain, tissue-culture treated (TC-treated; Corning 3712/3764) black for mammalian cell types and polypropylene 384-well (PP; Corning 3657) for haemolysis assays, all in duplicate (n=2), and keeping the final DMSO concentration to a maximum of 0.5%. All the sample preparation was done using liquid handling robots. […]
detailed in the Data sheet for the individual Project.
All bacteria were cultured in Cation-adjusted Mueller Hinton broth (CAMHB) at 37 °C overnight. A sample of each culture was then diluted 40-fold in fresh broth and incubated at 37 °C for 1.5-3 h. The resultant mid-log phase cultures were diluted (CFU/mL measured by OD600), then added to each well of the compound containing plates, giving a cell density of 5×10^5 CFU/mL and a total volume of 50 µL. All the plates were covered and incubated at 37 °C for 18 h without shaking.
Inhibition of bacterial growth was determined measuring absorbance at 600 nm (OD600), using a Tecan M1000 Pro monochromator plate reader. The percentage of growth inhibition was calculated for each well, using the negative control (media only) and positive control (bacteria without inhibitors) on the same plate as references.
The percentage of growth inhibition was calculated for each well, using the negative control (media only) and positive control (bacteria without inhibitors) on the same plate. The MIC […]
by an inhibition ≥ 80%. In addition, the maximal percentage of growth inhibition is reported as DMax, indicating any compounds with partial activity.
Date: Last updated June 2018 Confidential Page 5 of 11
Material Code Brand/Supplier Cat No.
Compound preparation plate, Polypropylene PP Corning 3364
Assay Plates – Antimicrobial
Non-binding surface NBS 384w Corning 3640
Assay Plates – Cytotoxicity
Tissue culture treated Black/Clear bottom 384w Corning 3712
Assay Plates - Haemolysis PP-Haem Corning 3657 […]
Growth media - bacteria CAMHB Bacto Laboratories 212322
Culture agar - fungi YPD Becton Dickinson 242720
Growth media - fungi YNB Becton Dickinson 233520
Resazurin Sigma-Aldrich R7017
Dulbecco's Modified Eagle Medium DMEM Life Technologies 11995-073
Foetal Bovine Serum FBS Bovogen FFBS-500
0.9% NaCl Saline Baxter AHF7124
Sample Name Sample ID MW Conc. Solvent Source […]

Structure (SMILES) | MIC [6] | other results
Cc1ccc(-c2c(-c3ccccn3)nc3n2CCC3)cc1 [compound 865] | – | MIC [1]: 1 µg/mL (≈ 3.63 µM); solubility (Aqueous solubility): 32 µM (≈ 8.81 µg/mL); MIC [2]: 16 µg/mL (≈ 58.1 µM); Dmax spread between recovery and non-recovery conditions at 24 h, 32 μg/mL [3]: > 20%; fraction unbound [4]: 0.08; MIC ([5]; 16 h): 4 µg/mL (≈ 14.5 µM); MIC [5]: 4 µg/mL (≈ 14.5 µM)
CSc1cccc(-c2c(-c3ccccn3)nc3n2CCC3)c1 [OSA_000826] | 4 µg/mL (≈ 13 µM) | –
CSc1ccc(-c2c(-c3ccccn3)nc3n2CCC3)cc1 [OSA_000824] | 4 µg/mL (≈ 13 µM) | –
COc1cccc(-c2c(-c3ccccn3)nc3n2CCC3)c1 [OSA_000825] | 16 µg/mL (≈ 54.9 µM) | –
c1ccc(-c2nc3n(c2-c2ccc4c(c2)OCO4)CCCC3)nc1 [OSA_000818] | 16 µg/mL (≈ 50.1 µM) | –
c1cncc(-c2nc3n(c2-c2ccc4c(c2)OCO4)CCC3)c1 [OSA_000816] | > 32 µg/mL | –

Continued, in another order:

MIC [6] | Structure (SMILES) | other results
32 µg/mL (≈ 105 µM) | c1ccc(-c2nc3n(c2-c2ccc4c(c2)CCO4)CCC3)nc1 [OSA_000827] | –
4 µg/mL (≈ 13.3 µM) | c1ccc(-c2nc3n(c2-c2ccc4ccoc4c2)CCC3)nc1 [OSA_000829] | –

— article PMC10714399, “Open Source Antibiotics: Simple Diarylimidazoles Are Potent against Methicillin-Resistant Staphylococcus aureus” (ACS Infectious Diseases, 2023)
